This is an account of results in patent US20260027258A1, “Antimicrobial Compositions” (Matoke Holdings Limited, priority 2022, published 2026).

Data set [1] deals with C. tropicalis. Kind of data set: Yeast susceptibility testing (EUCAST E.DEF 7.3.2 broth microdilution), C. tropicalis. Format: cell-based. The conditions noted are these: Candida tropicalis, C. tropicalis isolates (n=3), 24 hours read, MIC = growth inhibited by ≥50%. As to the method: (§1) AST was used to determine a Minimum Inhibitory Concentration (MIC) value for each antifungal agent on each strain of Candida. Three comparator drugs were also tested. This allowed the effectiveness of RO-101 gel to be compared to common antifungal drugs often used to treat VVC. Antifungal agents and their concentrations were as follows: RO-101 gel (1×, 2×, 10×, 20×: 1×=0.005%, 2×=0.01%, 10×=0.05% and 20×=0.1% Gox) (1 to 500 mg/L), SurgihoneyRO (1 to 500 mg/L), RO-101 gel 0% negative control (0% Gox) (1 to 500 mg/L), Fluconazole (0.125 to 64 mg/L), Itraconazole (0.015 to 8 mg/L) and Amphotericin (0.015 to 8 mg/L). The EUCAST E.DEF 7.3.2 (EUCAST, 2022a) method for yeast susceptibility testing was followed where possible.
(§2) Stock solutions of drugs were prepared with RPMI 1640 medium with 2% glucose. This was prepared by dissolving 20.8 g of RPMI 1640 powder (Sigma, Cat. No. R-6504), 69.1 g of morpholinopropanesulfonic acid (MOPS) (Melford, Cat. No. B2003) and 36 g of glucose (Sigma, Cat. No. G7528) in 800 ml of pharmacy water (Appleton Woods). 10M sodium hydroxide (Sigma, S8045) was added to adjust the pH to 7, and then the RPMI was filter sterilised. De Man, Rogosa & Sharpe (MRS) broth was used to grow the Lactobacillus isolates. MRS broth was prepared by dissolving 51 g of MRS powder (Sigma, 69966) in 1 litre of pharmacy water. 1 ml of Tween 80 (Sigma, P8074) was then added. […]
For orientation: In broth dilution the organism is exposed to a series of concentrations in liquid medium.

The subject of data set [2] is C. krusei. The data set can be described thus: Yeast susceptibility testing (EUCAST E.DEF 7.3.2 broth microdilution), C. krusei. The conditions noted are these: Pichia kudriavzevii, C. krusei isolates (n=4), 24 hours read, MIC = growth inhibited by ≥50%. Format: cell-based. The protocol:
as §1
(§3) Stock solutions of drugs were prepared with RPMI 1640 medium with 2% glucose. This was prepared by dissolving 20.8 g of RPMI 1640 powder (Sigma, Cat. No. R-6504), 69.1 g of morpholinopropanesulfonic acid (MOPS) (Melford, Cat. No. B2003) and 36 g of glucose (Sigma, Cat. No. G7528) in 800 ml of pharmacy water (Appleton Woods). 10M sodium hydroxide (Sigma, S8045) was added to adjust the pH to 7, and then the RPMI was filter sterilised. De Man, Rogosa & Sharpe (MRS) broth was used to grow the Lactobacillus isolates. MRS broth was prepared by dissolving 51 g of MRS powder (Sigma, 69966) in 1 litre of pharmacy water. 1 ml of Tween 80 (Sigma, P8074) was then added. The mixture was then sterilized by autoclaving at 121° C. for 15 minutes.
(§4) All yeast isolates selected were grown from high vaginal swab samples and were of the Candida genus. Species chosen included C. albicans (n=5), C. glabrata (n=8), C. krusei (n=4), C. tropicalis (n=3) and C. parapsilosis (n=4). These isolates were identified to a species level by testing for the presence of a germ tube, biochemical testing, what temperature the isolate grew in, the colour when streaked on chrome agar, and in some cases the isolates DNA was sequenced.
(§5) The isolates were streaked for single colonies on a SAB plate, using a sterile metal loop. They were then incubated at 35° C. for 48 hours prior to susceptibility testing. […]

Data set [3] has as its system C. parapsilosis. The data set can be described thus: Yeast susceptibility testing (EUCAST E.DEF 7.3.2 broth microdilution), C. parapsilosis. Format: cell-based. The conditions noted are these: Lodderomyces parapsilosis, C. parapsilosis isolates (n=4), 24 hours read, MIC = growth inhibited by ≥50%. As to the method:
as §1, §3, §4, §5

The test system of data set [4] is C. glabrata. The data set can be described thus: Yeast susceptibility testing (EUCAST E.DEF 7.3.2 broth microdilution), C. glabrata. In kind it is cell-based. The conditions noted are these: Nakaseomyces glabratus, C. glabrata isolates (n=8), 24 hours read, MIC = growth inhibited by ≥50% (Amphotericin ≥90%). As to the method: as §1, §3, §4, §5
The test system of data set [5] is strains of Candida causing VVC. The data set can be described thus: Yeast susceptibility testing, all Candida species tested (overall comparisons). In kind it is cell-based. The conditions noted are these: versus all of the gel concentrations. The protocol: as §1, §2
In data set [6] the test system is C. albicans. The data set can be described thus: Yeast susceptibility testing (EUCAST E.DEF 7.3.2 broth microdilution), C. albicans. In kind it is cell-based. The conditions noted are these: Candida albicans; C. albicans isolates (n=5); 24 hours read; MIC = growth inhibited by ≥50% (Amphotericin ≥90%). As to the method:
as §1, §2

The conditions of data set [7]: at 20° C. and 1 atm; cited from earlier work.

In brackets after ≈: the same amount, converted by molar mass.

A word on the MIC90: it is the lowest concentration that inhibits either 90% of growth or 90% of the strains tested, depending on the study. The MIC is the lowest concentration that inhibits growth of the organism. By MIC50 is commonly meant an inhibitory concentration at the 50% level, which refers to growth in some studies and to a panel of isolates in others. For the compound `CCC(C)n1ncn(-c2ccc(N3CCN(c4ccc(OCC5COC(Cn6cncn6)(c6ccc(Cl)cc6Cl)O5)cc4)CC3)cc2)c1=O` (stereo not drawn) [Itraconazole], the results for the MIC90 in data set [1], in data set [2] and in data set [3] were 0.0625 µg/mL (≈ 0.0886 µM), 0.25 µg/mL (≈ 0.354 µM) and 0.125 µg/mL (≈ 0.177 µM), respectively. The MIC stood at 0.031 µg/mL (≈ 0.0439 µM) in data set [1] (read-out: MIC geometric mean), 0.177 µg/mL (≈ 0.251 µM) in data set [2] (read-out: MIC geometric mean) and 0.025 µg/mL (≈ 0.0354 µM) in data set [3] (read-out: MIC geometric mean). For the same compound, the values for the MIC50 in data set [2] and in data set [3] were 0.125 µg/mL (≈ 0.177 µM) and 0.015 µg/mL (≈ 0.0213 µM), respectively.

Take `C[C@@H]1[C@H](O)[C@@H](C)/C=C/C=C/C=C/C=C/C=C/C=C/C=C/[C@H](O[C@@H]2O[C@H](C)[C@@H](O)[C@H](N)[C@@H]2O)C[C@@H]2O[C@](O)(C[C@@H](O)C[C@@H](O)[C@H](O)CC[C@@H](O)C[C@@H](O)CC(=O)O[C@H]1C)C[C@H](O)[C@H]2C(=O)O` [Amphotericin]: the MIC50 in data set [4] and in data set [6] was 0.0625 µg/mL (≈ 0.0676 µM) throughout. Besides, the results for the MIC90 in data set [4] and in data set [6] were 0.125 µg/mL (≈ 0.135 µM) and 0.0625 µg/mL (≈ 0.0676 µM), respectively. Also, the minimal inhibitory concentration (MIC) in data set [4] (read-out: MIC geometric mean) came to 0.081 µg/mL (≈ 0.0877 µM). Besides, the “MIC50, MIC90 and geometric means in comparison with RO-101 Gel” value in data set [5] was “lower MIC50, MIC90 and geometric means than all of the gel concentrations”.

As to `O=C(CO)[C@@H](O)[C@H](O)[C@H](O)CO` [Fructose], the solubility entry in data set [7] was “about 375 g/100 g water”.
